# From patent US9249085B2, “Aniline derivatives, their preparation and their therapeutic application” (FOVEA PHARMACEUTICALS, priority 2011, dated 2016)
# What was measured:
# [1] = biological target: recombinant human prostanoid EP4 receptor (Homo sapiens (Human), UniProt P35408); test: Human prostanoid EP4 receptor binding assay ([3H]PGE2 displacement); settings: HEK-293(T) membranes, 0.5 nM [3H]PGE2, 120 min at 22° C.; NC: not calculable; read-out: In vitro potency EP4 (h) IC50
# Procedure: Test 1.1: Human Prostanoid EP4 Receptor Binding Assay
# Cell membrane homogenate from Human embryonic kidney HEK-293(T) cells expressing recombinant human prostanoid EP4 receptor was used to perform Prostanoid receptor radioligand binding assays.
# The competition reaction was initiated by incubation of membrane protein homogenate (20 μg protein) for 120 min at 22° C. with 0.5 nM [^3H]PGE2 ligand in the absence or presence of the test compound in a buffer containing 10 mM MES/KOH (pH 6.0), 10 mM MgCl2 and 1 mM EDTA.
# Non-specific binding was determined in the presence of 10 μM PGE2 (the corresponding non-radioactive prostanoid). Affinity of the compound binding to hEP4 receptor was measured by displacement of the radiolabeled ligand in the presence of varying doses of tested compound.
# Incubations were terminated by rapid filtration under vacuum through glass fiber filters (GF/B, Packard) presoaked with 0.3% PEI and washed several times with ice-cold 50 mM Tris-HCl using a 96-sample cell harvester (Unifilter, Packard).
# The filters were dried and the residual radioactivity bound to the individual filters determined with addition of scintillation cocktail (Microscint 0, Packard) by a scintillation counter (Topcount, Packard).
# The results were expressed as a percent inhibition of the control radioligand specific binding.
# The standard reference compound PGE2, was tested in at several concentrations to obtain a competition curve to determined IC50.
# (§1) Analysis and Expression of Results
# The specific ligand binding to the receptors is defined as the difference between the total binding and the nonspecific binding determined in the presence of an excess of unlabelled ligand. The results are expressed as a percent of control specific binding ((measured specific binding/control specific binding)×100) obtained in the presence of the test compounds. The IC50 values (concentration causing a half-maximal inhibition of control specific binding) and Hill coefficients (nH) were determined by non-linear regression analysis of the competition curves generated with mean replicate values using Hill equation curve fitting (Y=D+[(A−D)/(1+(C/C50)nH)], where Y=specific binding, D=minimum specific binding, A=maximum specific binding, C=compound concentration, C50=IC50, and nH=slope factor). This analysis was performed using a software developed at Cerep (Hill software) and validated by comparison with data generated by the commercial software SigmaPlot® 4.0 for Windows® (© 1997 by SPSS Inc.). The inhibition constants (Ki) were calculated using the Cheng Prusoff equation (Ki=IC50/(1+(L/KD)), where L=concentration of radioligand in the assay, and KD=affinity of the radioligand for the receptor). A scatchard plot is used to determine the Kd.
# [2] = biological target: recombinant human prostanoid EP2 receptor (Homo sapiens (Human), UniProt P43116); test: Human prostanoid EP2 receptor cellular functional assay (cAMP, HTRF); type: cell-based; settings: for EC50: CHO cells expressing recombinant human EP2, cAMP by HTRF, 30 min, 37° C., read-out: In vitro functional assay EP2 (h) EC50; for In vitro functional assay EP2 (h) % response: percent of control specific agonist response (10 μM PGE2)
# Procedure: Test 1.2: Human Prostanoid EP2 Receptor Cellular Functional Assay
# […] CHO cells expressing the recombinant human prostanoid EP2 receptor were suspended in assay medium (HBSS buffer (Invitrogen) containing 20 mM HEPES (pH7.4) and 500 μM isobutyl-methylxanthine IBMX) and plated out to yield approximately 1×10^4 cells/well in a 96-well. Following this, cells were incubated with agonists for 30 min in the presence of the test compounds. For stimulated control measurements, separate assay wells contain 10 μM PGE2 (control specific agonist). All incubations were carried out at 37° C. in a 5% CO2 atmosphere. Following incubation, the amount of cAMP in each well was determined by HTRF method. The cells are lysed and the fluorescence acceptor (D2-labeled cAMP) and fluorescence donor (anti-cAMP antibody labeled with europium cryptate) are added. After 60 min at room temperature, the fluorescence transfer is measured at λ ex=337 nm and λ em=620 and 665 nm using a microplate reader (Rubystar, BMG).
# The cAMP concentration is determined by dividing the signal measured at 665 nm by that measured at 620 nm (ratio).
# The standard reference agonist PGE2 was tested at several concentrations to generate a concentration-response curve to determined EC50.
# as §1
# The results are expressed as a percent of control specific agonist response ((measured specific response/control specific agonist response)×100) obtained in the presence of the test compounds. The EC50 values (concentration producing a half-maximal specific response) were determined by non-linear regression analysis of the concentration-response curves generated with mean replicate values using Hill equation curve fitting (Y=D+[(A−D)/(1+(C/C50)nH)], where Y=specific response, D=minimum specific response, A=maximum specific response, C=compound concentration, and C50=EC50 and nH=slope factor). This analysis was performed using a software developed at Cerep (Hill software) and validated by comparison with data generated by the commercial software SigmaPlot® 4.0 for Windows® (© 1997 by SPSS Inc.).
# Sequence of recombinant human prostanoid EP4 receptor (P35408 whole entry): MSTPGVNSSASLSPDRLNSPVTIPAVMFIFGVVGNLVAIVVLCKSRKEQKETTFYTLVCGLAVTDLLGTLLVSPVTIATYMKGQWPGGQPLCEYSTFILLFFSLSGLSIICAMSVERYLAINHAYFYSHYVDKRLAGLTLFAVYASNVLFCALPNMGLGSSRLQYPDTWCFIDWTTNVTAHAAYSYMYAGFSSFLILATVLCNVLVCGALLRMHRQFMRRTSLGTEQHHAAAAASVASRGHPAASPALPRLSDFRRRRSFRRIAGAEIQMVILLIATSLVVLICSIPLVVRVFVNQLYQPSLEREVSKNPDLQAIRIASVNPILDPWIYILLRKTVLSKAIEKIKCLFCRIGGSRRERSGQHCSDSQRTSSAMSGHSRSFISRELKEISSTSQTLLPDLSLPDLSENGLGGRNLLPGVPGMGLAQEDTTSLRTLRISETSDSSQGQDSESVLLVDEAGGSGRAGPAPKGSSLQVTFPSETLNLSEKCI
# Sequence of recombinant human prostanoid EP2 receptor (P43116 whole entry): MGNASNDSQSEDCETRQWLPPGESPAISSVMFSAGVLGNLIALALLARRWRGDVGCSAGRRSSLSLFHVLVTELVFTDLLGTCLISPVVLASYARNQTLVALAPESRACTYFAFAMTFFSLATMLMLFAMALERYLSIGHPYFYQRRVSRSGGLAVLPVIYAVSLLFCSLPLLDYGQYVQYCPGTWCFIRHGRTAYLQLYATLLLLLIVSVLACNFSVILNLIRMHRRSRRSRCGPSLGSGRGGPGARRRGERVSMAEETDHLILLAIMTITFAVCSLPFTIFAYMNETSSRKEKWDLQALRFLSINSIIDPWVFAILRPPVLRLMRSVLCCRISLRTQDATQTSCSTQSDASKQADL
Structure (SMILES),IC50 [1],EC50 [2],In vitro functional assay EP2 (h) % response [2]
"Cc1ccc(OCC(=O)O)c(C)c1NCc1cc(-c2cccc(F)c2)cc(F)c1C [I(aw), 2-[3-[[3-fluoro-5-(3-fluorophenyl)-2-methyl-phenyl]methylamino]-2,4-dimethyl-phenoxy]acetic acid]",> 300 nM,3 nM,80%
"Cc1c(F)cc(-c2cccc(F)c2)cc1CNc1c(F)ccc(OCC(=O)O)c1F [I(aa), 2-[2,4-difluoro-3-[[3-fluoro-5-(3-fluorophenyl)-2-methylphenyl]methylamino]phenoxy]acetic acid]",> 300 nM,3 nM,97%
"O=C(O)COc1ccc(Cl)c(NCc2cc(-c3cccc(F)c3)ccc2F)c1F [I(k), 2-[4-Chloro-2-fluoro-3-[[2-fluoro-5-(3-fluorophenyl)phenyl]methylamino]phenoxy]acetic acid]",> 300 nM,73 nM,77%
"Cc1cc(-c2cccc(F)c2)cc(CNc2c(C)ccc(OCC(=O)O)c2C)c1C [I(ak), 2-[3-[[5-(3-fluorophenyl)-2,3-dimethyl-phenyl]methylamino]-2,4-dimethyl-phenoxy]acetic acid]",> 300 nM,2 nM,113%
"Cc1cc(CNc2c(F)ccc(OCC(=O)O)c2F)c(F)c(-c2cccc(F)c2)c1 [I(g), 2-[2,4-difluoro-3-[[2-fluoro-3-(3-fluorophenyl)-5-methyl-phenyl]methylamino]phenoxy]acetic acid]",,55 nM,80%
"Cc1cc(-c2cccc(F)c2)cc(CNc2c(F)ccc(OCC(=O)O)c2C)c1C [I(at), 2-[4-fluoro-3-[[5-(3-fluorophenyl)-2,3-dimethyl-phenyl]methylamino]-2-methyl-phenoxy]acetic acid]",> 300 nM,6 nM,91%
"C[C@@H](Nc1c(F)ccc(OCC(=O)O)c1F)c1cc(-c2cccc(F)c2)ccc1F (single isomer, unassigned) [I(as) (+ isomer)]",,18 nM,124%
"Cc1ccc(OCC(=O)O)c(C)c1NCc1cc(O)cc(-c2cccc(F)c2)c1 [I(ao), 2-[3-[[3-(3-fluorophenyl)-5-hydroxy-phenyl]methylamino]-2,4-dimethyl-phenoxy]acetic acid]",,1 nM,76%
"Cc1cc(CNc2c(C)ccc(OCC(=O)O)c2C)c(F)c(-c2cccc(F)c2)c1 [I(am), 2-[3-[[2-Fluoro-3-(3-fluorophenyl)-5-methyl-phenyl]methylamino]-2,4-dimethyl-phenoxy]acetic acid]",,3 nM,87%
"COc1c(C)cc(-c2cccc(F)c2)cc1CNc1c(F)ccc(OCC(=O)O)c1F [I(t), 2-[2,4-Difluoro-3-[[5-(3-fluorophenyl)-2-methoxy-3-methyl-phenyl]methylamino]phenoxy]acetic acid]",,17 nM,73%
"Cc1c(OCC(=O)O)ccc(F)c1NCc1cc(O)cc(-c2cccc(F)c2)c1 [I(ah), 2-[4-fluoro-3-[[3-(3-fluorophenyl)-5-hydroxy-phenyl]methylamino]-2-methyl-phenoxy]acetic acid]",,8 nM,74%
"Cc1cc(-c2ccc(F)c(F)c2)cc(CNc2c(F)ccc(OCC(=O)O)c2F)c1C [I(aq), 2-[3-[[5-(3,4-difluorophenyl)-2,3-dimethyl-phenyl]methylamino]-2,4-difluoro-phenoxy]acetic acid]",,2 nM,31%
"Cc1cc(-c2cccc(F)c2)cc(CNc2c(C)ccc(OCC(=O)O)c2C)c1F [I(ag), 2-[3-[[2-fluoro-5-(3-fluorophenyl)-3-methyl-phenyl]methylamino]-2,4-dimethyl-phenoxy]acetic acid]",> 300 nM,< 1 nM,85%
"N#Cc1c(OCC(=O)O)ccc(F)c1NCc1cc(-c2cccc(F)c2)ccc1F [I(an), 2-[2-cyano-4-fluoro-3-[[2-fluoro-5-(3-fluorophenyl)phenyl]methylamino]phenoxy]acetic acid]",,9 nM,91%
"Cc1c(OCC(=O)O)ccc(F)c1NCc1cc(-c2cccc(F)c2)ccc1F [I(m), 2-[4-Fluoro-3-[[2-fluoro-5-(3-fluorophenyl)phenyl]methylamino]-2-methyl-phenoxy]acetic acid]",,10 nM,89%
"COc1c(C)cc(-c2cccc(F)c2)cc1CNc1c(C)ccc(OCC(=O)O)c1C [I(al), 2-[3-[[5-(3-fluorophenyl)-2-methoxy-3-methyl-phenyl]methylamino]-2,4-dimethyl-phenoxy]acetic acid]",> 300 nM,0.9 nM,70%
"Cc1cc(-c2cccc(F)c2)cc(CNc2c(F)ccc(OCC(=O)O)c2F)c1F [I(h), 2-[2,4-difluoro-3-[[2-fluoro-5-(3-fluorophenyl)-3-methyl-phenyl]methylamino]phenoxy]acetic acid]",,13 nM,88%
"Cc1cc(-c2cccc(F)c2)cc(CNc2c(F)ccc(OCC(=O)O)c2C)c1F [I(ad), 2-[4-fluoro-3-[[2-fluoro-5-(3-fluorophenyl)-3-methyl-phenyl]methylamino]-2-methyl-phenoxy]acetic acid]",> 300 nM,2 nM,101%
"O=C(O)COc1ccc(Cl)c(NCc2cc(-c3cccc(F)c3)ccc2F)c1Cl [I(r), 2-[2,4-Dichloro-3-[[2-fluoro-5-(3-fluorophenyl)phenyl]methylamino]phenoxy]acetic acid]",> 300 nM,45 nM,78%
"O=C(O)COc1ccc(F)c(NCc2cc(O)cc(-c3cccc(F)c3)c2)c1F [I(p), 2-[2,4-Difluoro-3-[[3-(3-fluorophenyl)-5-hydroxy-phenyl]methylamino]phenoxy]acetic acid]",,17 nM,70%
"NC(=O)c1cc(CNc2c(F)ccc(OCC(=O)O)c2F)cc(-c2cccc(F)c2)c1 [I(z), 2-[3-[[3-carbamoyl-5-(3-fluorophenyl)phenyl]methylamino]-2,4-difluoro-phenoxy]acetic acid]",,4 nM,53%
